Measurements as given in article PMC9036659, “Boron-containing capsaicinoids” (RSC Advances, 2021).

Legend:
[1] = tested on: MRSA; parameters: method as in doi:10.1139/cjc-2018-0193; settings: data collected in previous study; Inactive = inhibition above 400 μM; cited from earlier work
[2] = tested on: vancomycin-resistant Enterococcus; parameters: method as in doi:10.1139/cjc-2018-0193; settings: data collected in previous study, Inactive = inhibition above 400 μM, cited from earlier work
[3] = tested on: green monkey kidney cells Vero (ATCC CCL-81); assay: Cytotoxicity assay (Alamar blue), Vero; assay type: cell-based; settings: for IC50: Chlorocebus sabaeus, Vero, read-out: IC50 Vero (normal cell line)
Experimental: (§1) The cells (human foreskin BJ fibroblast cells (ATCC CRL-2522), green monkey kidney cells Vero (ATCC CCL-81), human breast adenocarcinoma cells (ATCC HTB-26 MDA-MB 231), human breast adenocarcinoma cells (MCF7 ATCC HTB-22), and human colorectal carcinoma cells (HCT116 ATCC CCL-247)) were grown to 80% confluency, the cells were counted, diluted, and plated into treated 96-well cell culture plates. The BJ fibroblast and Vero cells were plated at a cell density of 10 000 cells per well and the HTB26, HCT116 and MCF7 cells were plated at cell density of 5000 cells per well in 90 μL of respective growth medium (without the addition of antibiotics) and incubated for 24 h to allow cells to adhere to the plates before treatment. Pure compounds were tested in triplicate in serial dilutions of seven concentrations ranging from 2 to 128 μg mL^−1 per well (final well volume of 100 μL, 1% DMSO per well). Each of the cell lines were incubated at 37 °C in a humidified atmosphere of 5% CO2; the BJ fibroblast and Vero cells for 24 h and the HTB-26, HCT116 and MCF7 cells for 72 h. Each plate contained four uninoculated positive controls, four untreated negative controls, and one column containing a concentration range for doxorubicin. Alamar blue was added, 24 h after the treatment, and fluorescence was monitored using a Cytation Gen 5 plate reader using 560 nm Ex/590 Em both at time zero and 4 h after Alamar blue addition. The inferred percentage of cell viability relative to vehicle control wells were calculated after subtracting the time zero emission 590 nm measurement from the final reading and the IC50 was determined. […]
(§2) Cytotoxicity Assay Data Alamar blue was added, 24 h after the treatment, and fluorescence was monitored using a Cytation Gen 5 plate reader using 560 nm Ex/590 Em both at time zero and 4 h after Alamar blue addition. The inferred percentage of cell viability relative to vehicle control wells were calculated after subtracting the time zero emission 590 nm measurement from the final reading and the IC50 was determined.

[4] = tested on: Proteus vulgaris (ATCC 12454); assay: Antimicrobial assay, P. vulgaris (OD600); assay type: cell-based
Experimental: (§3) The microorganisms (methicillin-resistant S. aureus MRSA 310, vancomycin-resistant E. faecium VRE 379, S. warneri (ATCC 17917), P. vulgaris (ATCC 12454), P. aeruginosa (ATCC 14210), and C. albicans (ATCC 14035)) were grown overnight on agar media. The following day the cultures were transferred into 0.9% saline water into a sterile glass tube. Using the McFarland reader, the turbidity was determined and further diluted into their respective media. The pure compounds were tested at seven different concentrations ranging from 2 to 128 μg mL^−1 in triplicate. Samples were plated into 96 well plates (10 μL in 20% DMSO) and then diluted pathogen (90 μL) was pipetted into the pre-prepared sample plates yielding 5 × 10^5 cfu mL^−1 with a final volume of 100 μL. Antibiotics that are active against specific pathogens were used as positive controls. The plates were incubated into a 37 °C incubator for 22 h. Growth of S. warneri. P. vulgaris, P. aeruginosa and C. albicans were measured by reading optical density (OD600), or in the case of slow growing microorganisms (MRSA and VRE), PrestoBlue was used to assess metabolic activity by measuring fluorescence (535–560)/(590–615) (excitation/emission) using a Thermo Scientific Varioskan Flash plate reader at time zero and then again after incubation of the plates for 22 h at 37 °C. After subtracting the time zero OD600 from the final reading, the percentages of microorganism survival relative to vehicle control wells were calculated. […]
(§4) Antimicrobial Assay Data Growth of S. warneri. P. vulgaris, P. aeruginosa and C. albicans were measured by reading optical density (OD600), or in the case of slow growing microorganisms (MRSA and VRE), PrestoBlue was used to assess metabolic activity by measuring fluorescence (535-560)⁄(590-615) (excitation/emission) using a Thermo Scientific Varioskan Flash plate reader at time zero and then again after incubation of the plates for 22 h at 37 °C. After subtracting the time zero OD600 from the final reading, the percentages of microorganism survival relative to vehicle control wells were calculated. […]

[5] = tested on: human foreskin BJ fibroblast cells (ATCC CRL-2522); assay: Cytotoxicity assay (Alamar blue), BJ; assay type: cell-based; settings: for IC50: Homo sapiens, Fibroblast, read-out: IC50 BJ (normal cell line)
Experimental: as §1, §2

[6] = tested on: Candida albicans (ATCC 14035); assay: Antimicrobial assay, C. albicans (OD600); assay type: cell-based
Experimental: as §3, §4

[7] = tested on: Staphylococcus warneri (ATCC 17917); assay: Antimicrobial assay, S. warneri (OD600); assay type: cell-based
Experimental: as §3, §4

[8] = tested on: human breast adenocarcinoma cells (MCF7 ATCC HTB-22); assay: Cytotoxicity assay (Alamar blue), MCF7; assay type: cell-based; settings: for IC50: Homo sapiens, MCF7, read-out: IC50 MCF7 (cancer cell line)
Experimental: as §1, §2

[9] = tested on: methicillin-resistant Staphylococcus aureus MRSA 310; assay: Antimicrobial assay, MRSA (PrestoBlue fluorescence); assay type: cell-based
Experimental: as §3, §4

[10] = tested on: human colorectal carcinoma cells (HCT116 ATCC CCL-247); assay: Cytotoxicity assay (Alamar blue), HCT116; assay type: cell-based; settings: for IC50: Homo sapiens, HCT-116, 72 h incubation, average ± SD, Inactive = inhibition above 300 μM, read-out: IC50 HCT (cancer cell line)
Experimental: as §1, §2

[11] = tested on: vancomycin-resistant Enterococcus faecium VRE 379; assay: Antimicrobial assay, VRE (PrestoBlue fluorescence); assay type: cell-based
Experimental: as §3, §4

[12] = tested on: Pseudomonas aeruginosa (ATCC 14210); assay: Antimicrobial assay, P. aeruginosa (OD600); assay type: cell-based
Experimental: as §3, §4

[13] = tested on: human breast adenocarcinoma cells (ATCC HTB-26 MDA-MB 231); assay: Cytotoxicity assay (Alamar blue), HTB-26; assay type: cell-based; settings: for IC50: Homo sapiens, HTB26, 72 h incubation, average ± SD, Inactive = inhibition above 300 μM, read-out: IC50 HTB (cancer cell line)
Experimental: as §1, §2

[14] = 24 h incubation, average ± SD, Inactive = inhibition above 300 μM
[15] = 72 h incubation, average ± SD, Inactive = inhibition above 300 μM

Structure (SMILES)	melting point	antimicrobial activity against P. vulgaris (in words) [4]	antimicrobial activity against C. albicans (in words) [6]	antimicrobial activity against S. warneri (in words) [7]	cytotoxic activity against MCF7 (in words) [8]	antimicrobial activity against MRSA (in words) [9]	cytotoxic activity against HCT116 (in words) [10]	IC50 [10]	antimicrobial activity against VRE (in words) [11]	antimicrobial activity against P. aeruginosa (in words) [12]	cytotoxic activity against HTB-26 MDA-MB 231 (in words) [13]	IC50 [13]	cytotoxic activity against Vero (in words) [3]	cytotoxic activity against BJ (in words) [5]	other results
COc1cc(CNC(=O)CCCCCCCCCCB2OC(C)(C)C(C)(C)O2)ccc1OCc1ccccc1 [Compound 8b]	–	–	–	–	–	–	–	–	–	–	–	–	–	–	IC50 [1]: 245 µM; MRSA MIC90 [1]: Inactive; VRE MIC90 [2]: Inactive; IC50 ([2]; read-out: VRE IC50): 277 µM
CCCCCC(=O)N(Cc1ccc(OC)c(OC)c1)c1ccccc1 [Compound 21, N-(3,4-dimethoxyphenylmethyl)-N-(phenyl)-hexanamide]	31.5 to 33.8 °C	–	–	–	–	–	–	–	–	–	–	–	–	–	–
CCCCCC(=O)N(Cc1ccc(OC)c(OC)c1)c1ccc(B2OC(C)(C)C(C)(C)O2)cc1 [Compound 23, N-(3,4-dimethoxyphenylmethyl)-N-[4-(4,4,5,5-tetramethyl-1,3,2-dioxaborolan-2-yl)phenyl]-hexanamide]	51.5 to 53.5 °C	inactive	inactive	inactive	selective but low to moderate activity	inactive	selective but low to moderate activity	118 ± 4.9 µM	inactive	inactive	selective but low to moderate activity	85.8 ± 7.1 µM	–	–	IC50 Vero (normal cell line) [3, 14]: Inactive; IC50 BJ (normal cell line) [5, 14]: Inactive; IC50 MCF7 (cancer cell line) [8, 15]: Inactive
CCCCCCCCCC(=O)N(Cc1ccc(OC)c(OC)c1)c1ccc(B2OC(C)(C)C(C)(C)O2)cc1 [Compound 24, N-(3,4-dimethoxyphenylmethyl)-N-[4-(4,4,5,5-tetramethyl-1,3,2-dioxaborolan-2-yl)phenyl]-decanamide]	58.1 to 59.8 °C	inactive	inactive	inactive	unselective cytotoxic effects	inactive	unselective cytotoxic effects	33.8 ± 2.1 µM	inactive	inactive	unselective cytotoxic effects	25.2 ± 1.3 µM	unselective cytotoxic effects	unselective cytotoxic effects	IC50 [3, 14]: 26.9 ± 4.4 µM; IC50 [5, 14]: 36.1 ± 0.8 µM; IC50 [8, 15]: 24.1 ± 3.8 µM
CCCCc1ccc(N(Cc2ccc(OC)c(OC)c2)C(=O)CCCCCCCCB2OC(C)(C)C(C)(C)O2)cc1 [Compound 33, N-(4-butylphenyl)-N-(3,4-dimethoxybenzyl)-9-(4,4,5,5-tetramethyl-1,3,2-dioxaborolan-2-yl)nonamide]	–	inactive	inactive	inactive	unselective cytotoxic effects	inactive	unselective cytotoxic effects	20.3 ± 0.7 µM	inactive	inactive	unselective cytotoxic effects	21.2 ± 3.5 µM	unselective cytotoxic effects	unselective cytotoxic effects	IC50 [3, 14]: 20.9 ± 1.2 µM; IC50 [5, 14]: 24.2 ± 0.2 µM; IC50 [8, 15]: 3.4 ± 2.2 µM
CCCCCCCCCCCCCCc1ccc(N(Cc2ccc(OC)c(OC)c2)C(=O)CCCCCCCCB2OC(C)(C)C(C)(C)O2)cc1 [Compound 34, N-(3,4-dimethoxybenzyl)-N-(4-tetradecylphenyl)-9-(4,4,5,5-tetramethyl-1,3,2-dioxaborolan-2-yl)nonamide]	–	inactive	inactive	inactive	inactive	inactive	inactive	–	inactive	inactive	inactive	–	inactive	inactive	–
OB(O)c1ccccc1 [Phenylboronic acid]	–	–	–	–	–	–	–	–	–	–	–	–	–	–	IC50 [1]: 170 µM; MRSA MIC90 [1]: Inactive; VRE IC50 [2]: Inactive; VRE MIC90 [2]: Inactive
